Assay [1] deals with Bleomycin-induced pulmonary fibrosis. Briefly: Bleomycin-induced pulmonary fibrosis in mice (14 d). Format: in vivo. Details: concentration or dose not given beside the values. The source says: The method for inducing pulmonary fibrosis in mice is described in Current Protocols in Pharmacology: 5.46.1, entitled “Mouse Models of Bleomycin-induced Pulmonary Fibrosis”. In order to induce pulmonary fibrosis, 6-8 week old C57B1/6 mice or Wistar rats are instilled once oropharyngeally with ˜1.5 U/kg of bleomycin sulfate (Calbiochem, Billerica, Mass.). Briefly, for oropharyngeal administration of bleomycin, mice or rats are anesthetized with isofluorane and then suspended on its back at a˜60 degree angle on an inclined surface with a rubber band running under the upper incisors. The airway is opened while securing the tongue with one arm of padded forceps and bleomycin is administered into the back of the oral cavity with a syringe. The animal's tongue and mouth were held open until the liquid disappeared from the oral cavity. The animal was then returned to its cage and monitored until fully recovered from the anesthesia. The study is terminated on day 14-28 for oropharyngeally administered bleomycin in mice and rats. All animals are euthanized at the termination of the studies by cervical dislocation for gross necropsy, and blood collected by cardiac puncture. The lungs from each animal are dissected from the animal and weighed. The BAL cells and fluid are collected by lavaging the lung twice with 0.5 ml Hanks Balanced Salt Solution (HBSS; VWR, Radnor, Pa.). After collection of BAL cells and fluid, lungs are dissected and removed from each animal. Whole lungs are inflated with 10% NBF and then fixed in 10% NBF for histology. Severity of fibrosis in the lungs is evaluated using a modified Ashcroft score (Hubner, Biotechniques, 2008) and subjective fibrosis scores. Lung sections were graded by averaging 5 microscopic fields at 20× on an Ashcroft scale as follows: Grade 0=normal lung; Grade 1=minimally detectable thickening of alveolar walls; Grade 2=Mild thickening of alveolar walls. Grade 3=moderate contiguous thickening of walls with fibrous nodules; Grade 4=Thickened septae and confluent fibrotic masses that total less than 10% of microscopic field. Grade 5=increased fibrosis with definite damage to lung structure and formation of fibrous bands or small fibrous masses between 10 and 50% of microscopic field; Grade 6=Large contiguous fibrotic masses consolidating more than 50% of microscopic field. Grade 7=severe distortion of structure and large fibrous areas; Grade 8=total fibrous obliteration of lung within microscopic field. Each slide was examined at 20× magnification and the score for 5 separate representative fields was averaged for each animal. Subjective scores (H&E and Trichrome-stained slides) were evaluated at 2× magnification for an overall assessment of pathologic change. A score of 0=no detectible findings to 5=complete involvement of consolidation. Scores in each group were averaged and standard error was calculated using Excel 2010. Dense, organized inflammatory exudates were scored as fibrosis. Other tissues were evaluated microscopically and scored routinely.

The target in another assay is T1, Human Calpain 2/NS1 (Homo sapiens, UniProt P17655).
T1 sequence (P17655 1-700): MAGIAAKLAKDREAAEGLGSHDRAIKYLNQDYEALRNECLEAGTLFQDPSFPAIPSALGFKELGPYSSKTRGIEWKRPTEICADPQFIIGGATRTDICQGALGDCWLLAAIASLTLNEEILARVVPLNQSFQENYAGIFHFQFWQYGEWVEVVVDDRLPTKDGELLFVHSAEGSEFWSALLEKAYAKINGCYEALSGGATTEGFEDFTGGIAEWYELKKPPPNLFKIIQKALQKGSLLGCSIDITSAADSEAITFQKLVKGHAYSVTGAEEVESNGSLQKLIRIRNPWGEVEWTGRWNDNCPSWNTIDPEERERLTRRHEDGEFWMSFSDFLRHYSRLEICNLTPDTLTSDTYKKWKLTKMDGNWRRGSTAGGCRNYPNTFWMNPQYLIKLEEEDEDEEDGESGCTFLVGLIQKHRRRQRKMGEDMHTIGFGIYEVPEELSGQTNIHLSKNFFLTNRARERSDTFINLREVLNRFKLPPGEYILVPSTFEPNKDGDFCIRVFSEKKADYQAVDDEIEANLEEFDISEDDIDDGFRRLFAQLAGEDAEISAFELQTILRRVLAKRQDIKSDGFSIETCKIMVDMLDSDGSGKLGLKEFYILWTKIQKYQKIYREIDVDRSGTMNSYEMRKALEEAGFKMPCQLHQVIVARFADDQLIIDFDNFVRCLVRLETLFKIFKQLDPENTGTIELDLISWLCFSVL
T1 sequence (P04632 1-268 partner): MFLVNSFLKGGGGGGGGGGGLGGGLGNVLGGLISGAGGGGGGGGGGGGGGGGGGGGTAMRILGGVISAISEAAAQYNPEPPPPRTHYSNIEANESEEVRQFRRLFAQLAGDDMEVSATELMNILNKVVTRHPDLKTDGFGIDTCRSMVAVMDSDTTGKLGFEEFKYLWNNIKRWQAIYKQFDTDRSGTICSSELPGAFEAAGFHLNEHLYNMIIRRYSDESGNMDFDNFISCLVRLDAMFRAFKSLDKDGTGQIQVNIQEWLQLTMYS
Briefly: Calpain inhibition continuous fluorescence (FRET) assay, Human Calpain 2/NS1. Format: biochemical. To be noted: read-out: Human Calpain 2/NS1 IC50. The method, boiled down: (§1)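 Fluorescence increase from the cleaved 5-FAM/QXL 520 substrate, read at 490/520 nm, gave activity. Calcium was supplied with the substrate to activate the enzyme in situ after a 25C enzyme-inhibitor preincubation, and IC50s were fit from initial slopes.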

A further assay addresses T2, Human Calpain 9/NS1 (Homo sapiens, UniProt O14815).
T2 sequence (O14815 1-690): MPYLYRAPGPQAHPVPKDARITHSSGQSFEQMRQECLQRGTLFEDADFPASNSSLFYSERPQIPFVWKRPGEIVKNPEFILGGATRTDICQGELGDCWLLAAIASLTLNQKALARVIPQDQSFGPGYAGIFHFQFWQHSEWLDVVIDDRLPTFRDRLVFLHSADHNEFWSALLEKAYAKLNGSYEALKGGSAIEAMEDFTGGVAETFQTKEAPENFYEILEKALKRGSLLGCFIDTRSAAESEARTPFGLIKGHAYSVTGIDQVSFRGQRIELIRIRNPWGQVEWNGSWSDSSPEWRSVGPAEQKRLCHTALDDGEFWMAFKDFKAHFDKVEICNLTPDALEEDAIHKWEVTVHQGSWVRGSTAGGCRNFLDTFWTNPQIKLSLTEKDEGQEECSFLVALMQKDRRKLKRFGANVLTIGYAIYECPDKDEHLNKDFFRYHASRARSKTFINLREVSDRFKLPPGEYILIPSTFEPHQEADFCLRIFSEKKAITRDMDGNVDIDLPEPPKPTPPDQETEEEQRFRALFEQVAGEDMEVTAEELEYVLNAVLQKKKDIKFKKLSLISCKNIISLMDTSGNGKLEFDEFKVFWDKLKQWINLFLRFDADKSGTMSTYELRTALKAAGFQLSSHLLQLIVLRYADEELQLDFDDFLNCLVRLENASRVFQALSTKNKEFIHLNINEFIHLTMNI
T2 sequence (P04632 1-268 partner): T1 sequence (P04632 1-268 partner)
The experiment in a line: Calpain inhibition continuous fluorescence (FRET) assay, Human Calpain 9/NS1. To be noted: read-out: Human Calpain 9/NS1 IC50. Format: biochemical. The method, boiled down: as §1

Assay [2] concerns Calpain activity in SH-SY5Y cells (SBDP-150). The experiment in a line: SH-SY5Y Spectrin western blot assay (SBDP-150 breakdown product, A23187-induced). Format: cell-based. The note with it: Homo sapiens; SH-SY5Y cells, A23187-induced SBDP-150, western blot; read-out: SH-SY5Y Spectrin IC50. A general note: Immunoblotting shows a protein as a band on a membrane.
For assay [3], the system named is Calpain activity in SH-SY5Y cells. The experiment in a line: SH-SY5Y + AMC fluorescence assay (Suc-LLVY-AMC substrate). The note with it: read-out: SH-SY5Y + AMC IC50. The assay is classed as cell-based.
Another assay deals with T3, Human Calpain 1/NS1 (Homo sapiens, UniProt P07384).
T3 sequence (P07384 1-714): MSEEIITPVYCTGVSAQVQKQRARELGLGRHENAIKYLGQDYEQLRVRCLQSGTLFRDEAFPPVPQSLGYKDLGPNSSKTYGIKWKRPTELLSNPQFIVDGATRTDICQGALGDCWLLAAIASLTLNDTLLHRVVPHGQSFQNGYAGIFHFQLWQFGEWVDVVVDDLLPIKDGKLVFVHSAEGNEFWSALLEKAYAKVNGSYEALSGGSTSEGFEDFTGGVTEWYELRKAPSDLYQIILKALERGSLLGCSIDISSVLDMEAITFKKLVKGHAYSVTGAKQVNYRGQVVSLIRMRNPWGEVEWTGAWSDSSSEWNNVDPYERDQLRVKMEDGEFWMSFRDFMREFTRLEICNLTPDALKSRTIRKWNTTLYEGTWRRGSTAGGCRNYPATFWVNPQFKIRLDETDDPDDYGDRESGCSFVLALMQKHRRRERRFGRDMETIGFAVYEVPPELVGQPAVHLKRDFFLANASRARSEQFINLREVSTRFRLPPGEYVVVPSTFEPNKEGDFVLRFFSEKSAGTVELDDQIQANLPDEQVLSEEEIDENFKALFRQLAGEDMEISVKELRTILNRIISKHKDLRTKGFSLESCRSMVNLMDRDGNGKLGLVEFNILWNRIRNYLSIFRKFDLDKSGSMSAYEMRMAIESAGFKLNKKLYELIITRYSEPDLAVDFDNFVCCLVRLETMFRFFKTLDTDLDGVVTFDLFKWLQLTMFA
T3 sequence (P04632 1-268 partner): T1 sequence (P04632 1-268 partner)
The experiment in a line: Calpain inhibition continuous fluorescence (FRET) assay, Human Calpain 1/NS1. The assay is classed as biochemical. To be noted: read-out: Human Calpain 1/NS1 IC50. In a few lines: as §1

The values below come from patent publication US11339130B1 (Blade Therapeutics, Inc., priority 2016, dated 2022).

Regarding `Cc1ccc(=O)n(-c2ccccc2)c1` [pirfenidone, reference compound], the “% reduction compared to vehicle” value in assay [1] is −14%.
As to `Cc1cccc(-c2nn(C)cc2C(=O)N[C@H](C=O)Cc2ccccc2)c1` [Compound 329, (S)-1-methyl-N-(1-oxo-3-phenylpropan-2-yl)-3-(M-tolyl)-1H-pyrazole-4-carboxamide], the IC50 at Human Calpain 2/NS1 was under 3 µM; on Human Calpain 9/NS1, under 3 µM; in assay [2], over 25 µM; in assay [3] it was over 25 µM; on Human Calpain 1/NS1, under 3 µM.
For `C#CCOCc1ccc(-c2nsnc2C(=O)N[C@@H](Cc2ccccc2)C(=O)CF)cc1` [Compound 362, (S)—N-(4-fluoro-3-oxo-1-phenylbutan-2-yl)-4-(4-((prop-2-yn-1-yloxy)methyl)phenyl)-1,2,5-thiadiazole-3-carboxamide], the IC50 on Human Calpain 2/NS1 was under 3 µM; at Human Calpain 9/NS1, under 3 µM; in assay [2], under 10 µM; in assay [3], over 25 µM; at Human Calpain 1/NS1 it was under 3 µM.
As to `Cc1cc(C(=O)NC(Cc2ccccc2)C(=O)C(N)=O)n(-c2ncccn2)n1` (stereo not shown) [Compound 351, N-(4-amino-3,4-dioxo-1-phenylbutan-2-yl)-3-methyl-1-(pyrimidin-2-yl)-1H-pyrazole-5-carb oxamide], the IC50 on Human Calpain 2/NS1 was under 3 µM; on Human Calpain 9/NS1 it was under 3 µM; in assay [2], 10 to 25 µM; in assay [3], under 10 µM; on Human Calpain 1/NS1 it was under 3 µM.
